Results: patent US6719976B1, “Peptide-based immunotherapeutic agent for treating allergic diseases” (Meiji Milk Products Co., Ltd., priority 1996, dated 2004)

Key:
[1] = test system: Cry j 1-specific T cell line; assay: Reactivity of Cry j 1-specific T cell line; type: cell-based, human; conditions: from patients with cedar pollinosis
Source text: (§1) Two peptides (Cha o 1 #8-Cry j 1 #22 core, Cha o 1 #32-Cry j 1 #22 core) were synthesized by joining Peptide No. 8 (p71-90: […] SEQ ID NO. 11) which is a T cell epitope of hinoki pollen allergen Cha o 1 (Japanese Patent Application N. Hei. 8-15327), or Peptide No. 32 ([…]: […] SEQ ID NO. 12) to Cry j 1 #22 core sequence “FIKRVSNVI”(SEQ ID NO. 7) obtained in Example 14 using a peptide synthesizer (PSSM-8, Shimadzu Seisakusho Ltd.). An RR sequence was inserted between Cha o 1 #8 and Cry j 1 #22 core and between Cha o 1 #32 and Cry j 1 #22 core, that is, Cha o 1 #8-Cry j 1 #22 core (SEQ NO: 4) and Cha o 1 #32-Cry j 1 #22 core (SEQ NO: 5).
(§2) A Cry j 1-specific T cell line and a Cha o 1-specific T cell line were prepared from the patients with cedar pollinosis and hinoki pollinosis, respectively. […] However, these T cell lines all react with the multi-epitope peptide of SEQ NO: 4 and with the multi-epitope peptide of SEQ NO: 5.

[2] = test system: Cha o 1-specific T cell line; assay: Reactivity of Cha o 1-specific T cell line; type: cell-based, human; conditions: from patients with hinoki pollinosis
Source text: as §1, §2

T cell clone PJ7-9 = assay: Proliferation response and cytokine production of T cell clone PJ7-9 to analog peptides; type: cell-based, human; conditions: unsubstituted 13-residue peptide regarded as 100%
Source text: Two clones, PJ7-9 and PB10-18, were employed to see if the activity of T cells can be altered by substituting the amino acids of T cell epitope peptide of the Cry j 1 #22 core. T cell clones PJ 7-9 and PB10-12 which react with Cry j 1 Peptide No. 22 p106-120 are restricted by DRB5*0101 and recognize the nine residues of the Cry j 1 #22 core. Each of the nine amino acids residues in the peptides p108-120 (VFIKRVSNVIIHG SEQ ID NO. 13) of 13 residues including the nine residues were substituted with an homologous amino acid and a non-homologous amino acid to produce analog peptides (FIGS. 17 and 18). The reactivity of T cell clones PJ 7-9 and PB 10-18 with these analog peptides was examined in terms of the uptake of [^3H] thymidine. The concentration of cytokine in the reaction solution was measured using a cytokine assay kit manufactured by R & D Systems. The production of IFN-γ, IL-4, IL-2, and IL-5 in the supernatant and the uptake of [^3H] thymidine obtained by reacting the peptide of 13 residues with no amino acid substitution were regarded as 100%. […] Accordingly, the amino acids located in these positions are considered to be important for forming the complex of HLA and T cell receptor molecules via the peptide. […] For the PB 10-18 clone, the uptake of [3H] thymidine is suppressed by substitution of amino acid No. 1, 2, 3, 4, 6, 7, or 8 of Cry j 1 #22 core. The amino acids located in these positions are considered to be important for forming the complex of HLA and T cell receptor molecules via the peptide. It is further observed that the IL-2 production is suppressed by substitution of amino acid No. 6, 7, or 8, as compared to IL-5 production (FIG. 18).

peripheral lymphocytes = assay: Proliferation response of peripheral lymphocytes induced by multi-epitope peptide; type: cell-based, human
Description: Peripheral lymphocytes derived from the patients with cedar pollinosis or from healthy subjects were suspended in RPMI-1640 culture medium supplemented with 10% human sera. The suspension was distributed in each well of a 96-well culture plate with a round bottom in a concentration of 2.5×10^5 cells/200 μl. The multi-epitope peptide represented by SEQ NO: 1, either Cry j 1 or Cry j 2, was added to each well to a final concentration of 0.001 to 20 μg/ml of the multi-epitope peptide, 50 μg/ml of Cry j 1 or 2 μg/ml of Cry j 2. The plate was incubated for 6 days. After 0.5 μCi [^3H] thymidine was added to the medium, incubation was continued for a further 16 hours. After the cells were harvested on a glass filter using a cell harvester, the level of [^3H] thymidine taken up into the cells was determined using a liquid scintillation counter.
Peripheral lymphocytes from 17 patients with cedar pollinosis and two healthy subjects were stimulated by 10 μg/ml of the multi-epitope peptide to evaluate T cell response. […] In the 17 patients, a maximum [^3H] thymidine uptake of 9,652 cpm was observed. When [^3H] thymidine uptake of peripheral lymphocytes without antigen stimulation is regarded as 1, the uptake of [^3H] thymidine by peripheral lymphocytes in the presence of an antigen is expressed by a stimulation index (SI). Upon identification of T cell epitopes, SI>2 is regarded to be positive. Similarly, SI>2 is judged to be proliferation responsive to the peptide. […] From the results, the peptide-based immunotherapy is effective when administered to 76.5% of the cedar pollinosis patients.

human IgE antibody = assay: Reactivity of the multi-epitope peptides with human IgE antibody (fluorescence plate assay); type: binding; conditions: 21 tested patients with cedar pollinosis
Description: The six multi-epitope peptides (C.A.#1 through C.A.#6) obtained in Example 6 were dissolved in 0.2 M acetate buffer solution (pH 4.5). The solution was dispensed in quantities of 0.1 ml/well in a black plate (manufactured by Dainihon Pharmaceutical Co., Ltd.) then allowed to stand at 4° C. overnight. After the antigen solution was removed, the wells were washed three times with a washing solution and the serum (4-fold dilution) from 29 patients with cedar pollinosis and healthy subjects were each added to separate wells. The system was then reacted at 37° C. for 4 hours. After the sera were removed, the wells were washed three times with a washing solution then reacted with anti-human IgE antibody (made by Pharmacia Inc.) at room temperature overnight. After washing three times with a washing solution, a substrate solution containing 0.1 mM 4-methylumbelliferyl-, β-D-galacto-pyranoside/0.01 M phosphate buffer (pH 7.0), 0.1 M NaCl, 1 mM MgCl2, 0.1% NaN, and 0.1% BSA was added, and the solution was incubated at 37° C. for 2 hours. A solution of 0.1 M glycine/NaOH (pH 10.3) was added to the wells to terminate the reaction. Fluorescent intensity was measured using a fluorophotometer (Labsystems). For positive control to each multi-epitope peptide, biotin-labeled rabbit anti-d epitope IgG and peroxidase-labeled streptoavidin (made by Pierce Inc.) were reacted.

T cell clones = assay: Recognizing the T cell epitopes in the multi-epitope peptide C.A.#4 by T cell clones; type: cell-based, human; conditions: C.A.#4 10 μg/ml
Description: The antigenic peptide constituting the multi-epitope peptide C.A.#4 obtained in Example 6 was examined to determine if the antigenic peptide actually functions as a T cell epitope.
On a 96-well micro culture plate, a mixture of 5×10^4 cells of the autologous B cell line previously treated with mitomycin C and 2×10^4 cells of the T cell clone was incubated for 2 days in 0.2 ml 15% serum-supplemented RPMI-1640 medium, together with, as an antigen, either 50 μg/ml of Cry j 1 and 2 μg/ml of Cry j 2, each antigenic peptide constituting the multi-epitope peptide C.A.#4 or 10 μg/ml C.A.#4 multi-epitope peptide produced by gene expression. After 0.5 μCi [^3H] thymidine was added to the medium, incubation was continued for a further 16 hours. After the cells were harvested on a glass filter using a cell harvester, the level of [^3H] thymidine taken up into the cells was determined using a liquid scintillation counter.

SEQ NO: 4: Cha o 1 #8 joined to Cry j 1 #22 core with an RR sequence inserted (IFSKNLNIKLNMPLYIAGNKRRFIKRVSNVI; listed as Cryptomeria japonica)
reactivity of Cry j 1-specific T cell line [1]: react with
reactivity of Cha o 1-specific T cell line [2]: react with

SIKRVSNVI (listed as Cryptomeria japonica) [Cry j 1 #22 core with the first amino acid F substituted with S]
IFN-γ production (T cell clone PJ7-9): marked increase
IL-2 production (T cell clone PJ7-9): marked increase
uptake of [3H] thymidine (T cell clone PJ7-9): no change

SEQ NO: 5: Cha o 1 #32 joined to Cry j 1 #22 core with an RR sequence inserted (SSGKNEGTNIYNNNEAFKVERRFIKRVSNVI; listed as Cryptomeria japonica)
reactivity of Cry j 1-specific T cell line [1]: react with
reactivity of Cha o 1-specific T cell line [2]: react with

SSGKNEGTNIYNNNEAFKVE [Cha o 1 #32]
reactivity of Cry j 1-specific T cell line [1]: does not react with
reactivity of Cha o 1-specific T cell line [2]: reacts with

IFSKNLNIKLNMPLYIAGNK [Cha o 1 #8]
reactivity of Cry j 1-specific T cell line [1]: does not react with
reactivity of Cha o 1-specific T cell line [2]: reacts with

FIKRVSNVI [Cry j 1 #22 core]
reactivity of Cry j 1-specific T cell line [1]: reacts with
reactivity of Cha o 1-specific T cell line [2]: does not react with

B1: SEQ NO: 1: multi-epitope peptide containing selected T cell epitopes of Cry j 1 and Cry j 2 joined via Arg-Arg (peptide, listed as Cryptomeria japonica)
chain: MKVTVAFNQFGPNRRVFIKRVSNVIIHGRRIDIFASKNFHLQKNTIGTGRRISLKLTSGKIASRRVDGIIAAYQNPASWK
patients with proliferation response (SI>2) (peripheral lymphocytes; 13 out of the 17 patients, 10 μg/ml): 76.5%
maximum [3H] thymidine uptake (peripheral lymphocytes; 17 patients, 10 μg/ml): 9,652 cpm
proliferation response of peripheral lymphocytes (peripheral lymphocytes; one patient and two healthy subjects, 0.001 to 20 μg/ml): no proliferation response
patients whose peripheral lymphocytes showed proliferation response (peripheral lymphocytes; six patients with cedar pollinosis, 0.001 to 20 μg/ml): five out of six
T cell proliferation response of peripheral lymphocytes from healthy subjects (peripheral lymphocytes; two healthy subjects, 10 μg/ml): No response to T cell proliferation was observed

B2: SEQ NO: 2: joining p213-225 and p108-120 of Cry j 1, p182-200 and p79-98 of Cry j 2, p80-95 of Cry j 1, p66-80 of Cry j 1 (peptide, listed as Cryptomeria japonica)
chain: MKVTVAFNQFGPNRRVFIKRVSNVIIHGRRIDIFASKNFHLQKNTIGTGRRWKNNRIWLQFAKLTGFTLMGRRLKMPMYIAGYKTFDGRRVDGIIAAYQNPASWK
reaction with the IgE antibody of the patients (human IgE antibody): did not react
stimulation of peripheral lymphocyte samples (peripheral lymphocytes; 21 tested patients with cedar pollinosis): stimulated all the peripheral lymphocyte samples

B3: a-Arg-Arg-b-Arg-Arg-d-Arg-Arg-e-Arg-Arg-c (peptide)
peptide: KSMKVTVAFNQFGPNRRPCVFIKRVSNVIIHGRRAPRDSPNTDGIDIFASKNFHRRKDIKLSDISLKLTSGKIASCRRPCQPHFTFKVDGIIA
notes: produced by gene expression
proliferation response of T cell clone PB14-19 (recognizes Cry j2 p341-355) (T cell clones): somewhat weak
proliferation response of the T cell clones recognizing the respective epitope (T cell clones; clones PB8-3, PB8-34, PB4-22, PB14-5, PB14-3): comparable to that of each of the peptides
